Consider 41 molecules from patent US11731985B2, “Compositions and methods for treating cancer” (Hb Therapeutics Inc., priority 2018, dated 2023).

Read-outs that look alike come from different tables or passages of the source. Where a SMILES comes first, the peptide text is derived from it. The star is where a group is joined. Cbz = O=C(OCc1ccccc1)* Some results are limits rather than exact numbers.

One data set concerns lung A549 xenografts. In words: Subcutaneous xenografts of lung A549 cancer cell line in nude mice. The class given is in vivo. The method, then: (§1) For the therapeutic effects of the compounds, we examined the effects of CPD1 and CPD24 on various types of cancer xenografts in mice. […] NOD/SCID mice bearing intracranial brain xenografts of glioblastoma LN229 cell line were treated with CPD1.

The next data set has as its system LN229 cells. In words: Cell viability assay, LN229 cells. Conditions: for IC50: read-out: Inhibition of Cancer Cell Growth (IC50). The class given is cell-based, human. As for the experimental part:
Each of the compounds was used to treat the cancer LN229 cells and examined first by western and dot blot assays for the degradation of SUMO1 protein and then by cell viability assay for the IC50 values of anticancer activity.
(§2) LN229 cell were treated with a series of dilutions of CPD1 and examined by cell viability assay for cell growth inhibition (FIG. 2B). […] Therefore, CPD1 acts as the degrader of SUMO1 protein and inhibitor of SUMO1 conjugation in cancer cells.

The subject of data set [1] is colon cancer PDX (L1206F). The data set can be described thus: Patient derived xenograft of colon cancer (L1206F). The class given is in vivo, mice.
Source text: (§3) The left two graphs show data for compounds CPD1 and the middle two graphs show data for CPD24 treatment of colon cancer PDX (L1206F). […] The right two graphs show data for compound CPD1 and CPD24 treatment of lung cancer PDX (L1102F). […] The significance of **P<0.01, and ***P<0.001 was statistically analyzed.
as §1
Background: Xenograft models place foreign cells or tissue in a host animal.

Data set [2] in a line: Tolerability across all xenograft mice. Conditions: over the treatment period. The class given is in vivo. The method, then:
as §1

Data set [3] concerns SUMO1. The data set can be described thus: Ubiquitination of Flag-SUMO1 (immunoprecipitation, western blot) in co-transfected LN229 cells. The class given is cell-based, human. Conditions: LN229 cells co-transfected with Flag-SUMO1-GV and HA-UB-WT. From the text:
(§4) The non-conjugated Flag-tagged SUMO1 (Flag-SUMO1-GV) and the HA-tagged wild type (WT) UB (HA-UB-WT) were co-transfected in LN229 cells.

The test system of another data set is colon HCT116 xenografts. In words: Subcutaneous xenografts of colon HCT116 cancer cell line in nude mice. It is filed as in vivo. As for the experimental part:
as §1

Data set [4] has as its target T1, SUMO1 (Homo sapiens, UniProt P63165). The data set can be described thus: Western and dot blot of normal lung epithelial Nuli-1 and lung cancer cells. The class given is cell-based. Also on record: CPD24 treatment reduces SUMO1 conjugation and total levels of SUMO1 protein in the cancer but not normal cells; endogenous in cells.
Another data set relates to lung cancer PDX (L1102F). In words: Patient derived xenograft of lung cancer (L1102F). It is filed as in vivo, mice.
Source text: as §3, §1

The target in data set [5] is T1, SUMO1. The data set can be described thus: Western and dot blot assays for SUMO1 conjugation and SUMO1 protein levels in LN229 cells. The class given is cell-based. Also on record: analyzed by western blotting for detection of the conjugate and free form of SUMO1 protein and dot blotting for total levels of SUMO1 protein; endogenous in cells; host or cells: LN229 glioblastoma cells. Conditions: LN229 cells treated with CPD1, followed by MG132. The method, then: FIG. 2A illustrates how the glioblastoma LN229 cell line was treated with each of compounds of the National Cancer Institute (NCI) Diversity Set IV library and analyzed by western blot assays using SUMO1, SUMO2/3, UB and β-actin antibodies.
as §2, §4

Where [6] appears, read: Homo sapiens, LN-229, LN229 cells.

T1 sequence (P63165 1-97 limits assumed): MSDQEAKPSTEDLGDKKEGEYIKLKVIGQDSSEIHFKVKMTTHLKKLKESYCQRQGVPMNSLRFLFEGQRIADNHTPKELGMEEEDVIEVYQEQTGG

Turning to `N#Cc1ccc2nc(NC(=O)Nc3cccc(Cl)c3)sc2c1` [Compound 24, 1-(3-chlorophenyl)-3-(6-cyano-1,3-benzothiazol-2-yl)urea], the xenograft progression result in the data set on lung A549 xenografts is given as “significantly suppressed xenograft progression”. Besides, the IC50 with LN229 cells (setting [6]) was no more than 5 µM. Also, the “inhibition of the cell growth, compared with the other representative compounds” value in the data set on LN229 cells (LN229 cells, FIG. 3A) is reported as “much more potent in inhibition of the cell growth”. For the same molecule, in [1], the “body weight of mice” value is on record as “had no effects on the body weight of mice” and the “tumor growth (tumor sizes)” value was “significantly inhibits the tumor growth of the colon cancer PDXs”. Moreover, the “tolerability, clinical signs” value in data set [2] is given as “well tolerated over the treatment period with no clinical signs of lethargy, ataxia, paralysis, seizure or weight loss”. For the same molecule, the “poly-ubiquitination of SUMO1 protein” value with SUMO1 [3] was “results in the poly-ubiquitination of SUMO1 protein”. In addition, in the data set on colon HCT116 xenografts, the xenograft progression result was “significantly suppressed xenograft progression”. The “SUMO1 conjugation and total SUMO1 protein in normal versus cancer cells” value at SUMO1 [4] is “reduces SUMO1 conjugation and total levels of SUMO1 protein only in cancer cells”. For the same molecule, the mouse body weight entry with lung cancer PDX (L1102F) is reported as “no effects of the treatment on mouse body weight”. Besides, the “PDX growth inhibition, potency compared with CPD1” value with lung cancer PDX (L1102F) (CPD24 25 and 50 mg/kg versus CPD1 100 mg/kg) was “more potent”. In addition, the PDX growth entry in the data set with lung cancer PDX (L1102F) (CPD24 25 and 50 mg/kg, CPD1 100 mg/kg) is listed as “markedly inhibits the PDX growth”.
Consider `N#Cc1cc(NC(=O)Nc2nc3ccc(Cl)cc3s2)ccc1Cl` [Compound 85], for which, in the data set on LN229 cells (setting [6]), the IC50 was no more than 5 µM.
Consider `N#Cc1ccc(Cl)c(NC(=O)Nc2nc3ccc(Cl)cc3s2)c1` [Compound 86], for which, in the data set on LN229 cells (setting [6]), the IC50 is no more than 5 µM.
Take `N#Cc1cc(NC(=O)Nc2nc3ccc(Cl)cc3s2)ccc1Br` [Compound 87]: the IC50 in the data set with LN229 cells (setting [6]) is no more than 5 µM.
The same measure, in the same setting: as for `Cc1ccc(NC(=O)Nc2nc3ccc(Cl)cc3s2)cc1C#N` [Compound 88], the figure is no more than 20 µM.
On to `N#Cc1cccc(NC(=O)Nc2nc3c(s2)CC(C(N)=O)CC3)c1` (stereo not shown) [Compound 89], for which the IC50 in the data set with LN229 cells (setting [6]) is greater than 20 µM.
For the molecule `NC(=O)C1CCc2nc(NC(=O)Nc3cccc(Cl)c3)sc2C1` (stereo not shown) [Compound 90, 2-[(3-chlorophenyl)carbamoylamino]-4,5,6,7-tetrahydro-1,3-benzothiazole-6-carboxamide], the IC50 with LN229 cells (setting [6]) is greater than 20 µM.
Take `N#Cc1ccc(NC(=O)Nc2nc3ccc(Cl)cc3s2)cc1C#N` [Compound 91]: the IC50 with LN229 cells (setting [6]) is no more than 5 µM.
Take `N#Cc1cc(NC(=O)Nc2nc3ccc(Cl)cc3s2)ccc1F` [Compound 92]: the IC50 with LN229 cells (setting [6]) is no more than 5 µM.
For `N#Cc1cc(Cl)cc(NC(=O)Nc2nc3ccc(Cl)cc3s2)c1` [Compound 93], the IC50 in the data set on LN229 cells (setting [6]) was no more than 5 µM.
In the case of `N#Cc1ccc(NC(=O)Nc2nc3ccc(Cl)cc3s2)cc1` [Compound 94], the IC50 in the data set with LN229 cells (setting [6]) was no more than 5 µM.
For `N#Cc1cccc(NC(=O)Nc2nc3ccc(Cl)cc3s2)c1F` [Compound 95], the IC50 in the data set with LN229 cells (setting [6]) was greater than 20 µM.
Same read-out and setting: as for `N#Cc1ccc(F)c(NC(=O)Nc2nc3ccc(Cl)cc3s2)c1` [Compound 96], the figure is no more than 5 µM; as for `N#CC1CCc2nc(NC(=O)Nc3cccc(Cl)c3)sc2C1` (stereo not shown) [Compound 97], no more than 20 µM.
On the same count and under the same terms, for `N#Cc1ccc2nc(NC(=O)Nc3cccc(Oc4ccccc4)c3)sc2c1` [Compound 98] the value was no more than 5 µM; for `N#Cc1ccc2nc(NC(=O)Nc3ccnc(Cl)c3)sc2c1` [Compound 99], no more than 5 µM.
Consider `N#Cc1cccc(NC(=O)Nc2nc3ccc(C(F)(F)F)cc3s2)c1` [Compound 100], for which the IC50 in the data set with LN229 cells (setting [6]) is no more than 5 µM.
Still for that read-out and setting: as for `N#Cc1cccc(NC(=O)Nc2nc3c(Cl)cc(Cl)cc3s2)c1` [Compound 101], the figure is no more than 5 µM.
For the molecule `N#Cc1cccc(NC(=O)Nc2nc3c(F)cc(F)cc3s2)c1` [Compound 102], in the data set with LN229 cells (setting [6]), the IC50 is no more than 5 µM.
Regarding `N#Cc1cccc(NC(=O)Nc2nc3ccc(OC(F)(F)F)cc3s2)c1` [Compound 103], the IC50 in the data set on LN229 cells (setting [6]) was no more than 5 µM.
Turning to `N#Cc1ccc(NC(=O)Nc2nc3ccc(Cl)cc3s2)c(Cl)c1` [Compound 104], the IC50 in the data set with LN229 cells (setting [6]) was no more than 5 µM.
`N#Cc1cc(F)cc(NC(=O)Nc2nc3ccc(Cl)cc3s2)c1` [Compound 105]: in the data set with LN229 cells (setting [6]), the IC50 is no more than 5 µM.
The same measure, in the same setting: for `N#Cc1cc(Br)cc(NC(=O)Nc2nc3ccc(Cl)cc3s2)c1` [Compound 106] the value was no more than 20 µM; for `N#Cc1ccc(NC(=O)Nc2nc3ccc(Cl)cc3s2)cc1F` [Compound 107], no more than 5 µM.
On to `N#Cc1ccc2nc(NC(=O)Nc3ccc4[nH]c(=O)[nH]c4c3)sc2c1` [Compound 108], for which the 50% inhibitory concentration (IC50) with LN229 cells (setting [6]) was greater than 20 µM.
For `N#Cc1ccc2nc(NC(=O)Nc3cccc4ccccc34)sc2c1` [Compound 109], the IC50 in the data set on LN229 cells (setting [6]) was greater than 20 µM.
Take `N#Cc1ccc2nc(NC(=O)Nc3ccc4ccccc4c3)sc2c1` [Compound 110]: in the data set with LN229 cells (setting [6]), the IC50 is no more than 20 µM.
Still for that read-out and setting: as for `Cn1ncc2ccc(NC(=O)Nc3nc4ccc(C#N)cc4s3)cc21` [Compound 111], the figure is greater than 20 µM; as for `N#Cc1ccc2nc(NC(=O)Nc3cccc(C(=O)OCCOCCN)c3)sc2c1` [Compound 112], greater than 20 µM; as for `N#Cc1cc(F)cc(NC(=O)Nc2nc3ccc(C(F)(F)F)cc3s2)c1` [Compound 113, 1-(3-cyano-5-fluorophenyl)-3-[6-(trifluoromethyl)-1,3-benzothiazol-2-yl]urea], no more than 5 µM.
With `CS(=O)(=O)c1ccc2nc(NC(=O)Nc3cccc(C#N)c3)sc2c1` [Compound 114], in the data set on LN229 cells (setting [6]), the IC50 was no more than 20 µM.
As to `N#Cc1cc(Cl)cc(NC(=O)Nc2nc3ccc(C(F)(F)F)cc3s2)c1` [Compound 115], the IC50 in the data set with LN229 cells (setting [6]) was no more than 5 µM.
For `N#Cc1ccc(NC(=O)Nc2nc3ccc(C(F)(F)F)cc3s2)c(Cl)c1` [Compound 116], in the data set with LN229 cells (setting [6]), the IC50 is no more than 5 µM.
`N#Cc1ccc(NC(=O)Nc2nc3ccc(C(F)(F)F)cc3s2)cc1` [Compound 117]: the IC50 with LN229 cells (setting [6]) is no more than 5 µM.
On to `N#Cc1ccc(NC(=O)Nc2nc3ccc(Cl)cc3s2)cc1Cl` [Compound 118], for which the IC50 with LN229 cells (setting [6]) is no more than 5 µM.
On the same count and under the same terms, as for `N#Cc1ccc(NC(=O)Nc2nc3ccc(Cl)cc3s2)cc1C(F)(F)F` [Compound 119], the figure is no more than 5 µM.
Turning to `CC(C)(C)OC(=O)NCCOCCOc1cccc(NC(=O)Nc2nc3ccc(C#N)cc3s2)c1` [Compound 120], the IC50 with LN229 cells (LN229 cells) is no more than 5 µM.
`N#Cc1ccc2nc(NC(=O)Nc3cccc(OCCOCCN)c3)sc2c1` [Compound 121]: in the data set with LN229 cells (LN229 cells), the IC50 is greater than 20 µM.
`N#Cc1c(F)ccc(NC(=O)Nc2nc3ccc(Cl)cc3s2)c1F` [Compound 122]: the IC50 with LN229 cells (setting [6]) is no more than 5 µM.
On to `N#Cc1ccc(NC(=O)Nc2nc3ccc(Cl)cc3s2)c(F)c1` [Compound 123], for which, in the data set with LN229 cells (setting [6]), the IC50 was no more than 20 µM.
For `CC(C)C[C@@H](C=O)NC(=O)[C@H](CC(C)C)NC(=O)[C@H](CC(C)C)NC(=O)OCc1ccccc1` [MG132, reference compound] (Cbz-Leu-Leu-Leu-aldehyde), the “effect of MG132 on CPD1-induced degradation of SUMO1 protein” value on SUMO1 [5] is listed as “prevents CPD1-induced degradation of SUMO1 protein”.

Usually IC50 stands for the concentration that gives 50% inhibition.
